From publication PMC11491487 (Nature Communications, 2024)
“And” between values parts separate entries of the source, which are not always exact repeats. Equal entries are not always repeated.

Legend:
chiRyR-I4657M/G4819E = chiRyR-I4657M/G4819E (Oryctolagus cuniculus, UniProt P11716, C4657M/F4564Y/G4819E/L4792S/R4563K); experiment: biochemical; type: biochemical, rabbit; settings: for [3H]ryanodine binding (B/Bmax): 1 μM TET
chiRyR [1] = target: T1, chiRyR (Oryctolagus cuniculus, UniProt P11716, C4657I/F4564Y/L4792S/R4563K); experiment: cell-based; parameters: species or system rabbit
Sf RyR = Sf RyR (Spodoptera frugiperda, UniProt A0A4P8L6R5); experiment: time-lapse [Ca2+]ER fluorescence assay, HEK293 cells; type: cell-based
rRyR1 = rRyR1 (Oryctolagus cuniculus, UniProt P11716); experiment: as above; type: cell-based, rabbit
chiRyR [2] = target: T1, chiRyR; experiment: biochemical; type: biochemical, rabbit

## CNC(=O)c1cc(C#N)cc(C)c1NC(=O)c1cc(Cn2nnc(C(F)(F)F)n2)nn1-c1ncccc1Cl [TET, tetraniliprole]
chiRyR-I4657M/G4819E
  EC50: 87.8 ± 6.4 µM
chiRyR-I4657M/G4819E; pCa 3.52
  [3H]ryanodine binding (B/Bmax): 0.1264 and 0.1119 and 0.1409 and 0.1015
chiRyR-I4657M/G4819E; pCa 3.89
  [3H]ryanodine binding (B/Bmax): 0.1367 and 0.1222 and 0.1015
chiRyR-I4657M/G4819E; pCa 4.5
  [3H]ryanodine binding (B/Bmax): 0.1326 and 0.1367 and 0.1347 and 0.1885
chiRyR-I4657M/G4819E; pCa 5
  [3H]ryanodine binding (B/Bmax): 0.172 and 0.0953 and 0.1139 and 0.1243
chiRyR-I4657M/G4819E; pCa 5.43
  [3H]ryanodine binding (B/Bmax): 0.04765 and 0.0663 and 0.05179 and 0.06008
chiRyR [1]
  EC50: 46.1 nM
chiRyR [1]; TET 1e-5 uM
  F/F0: 0.9259 and 0.9674 and 0.9677
chiRyR [1]; TET 0.001 uM
  F/F0: 0.7877 and 0.806 and 0.7759
chiRyR [1]; TET 0.01 uM
  F/F0: 0.2917 and 0.2699 and 0.2537
chiRyR [1]; TET 0.1 uM
  F/F0: 0.2632 and 0.2374 and 0.2313
chiRyR [1]; TET 0.5 uM
  F/F0: 0.2569 and 0.2462 and 0.2329
chiRyR [1]; TET 1 uM
  F/F0: 0.2399 and 0.24 and 0.2303
chiRyR [1]; TET 10 uM
  F/F0: 0.2639 and 0.2436 and 0.2393
chiRyR [1]; TET 50 uM
  F/F0: 0.3123 and 0.2617 and 0.3022
Sf RyR
  EC50: 175 nM
Sf RyR; TET 1e-5 uM
  F/F0: 0.9606 and 0.9752 and 0.9813
Sf RyR; TET 0.001 uM
  F/F0: 1.004 and 1.002 and 1.001
Sf RyR; TET 0.01 uM
  F/F0: 0.3097 and 0.3094 and 0.2868
Sf RyR; TET 0.1 uM
  F/F0: 0.2582 and 0.2663 and 0.2776
Sf RyR; TET 0.5 uM
  F/F0: 0.268 and 0.2944 and 0.2596
Sf RyR; TET 1 uM
  F/F0: 0.2734 and 0.2934 and 0.2867
Sf RyR; TET 10 uM
  F/F0: 0.2774 and 0.2809 and 0.2932
Sf RyR; TET 50 uM
  F/F0: 0.2939 and 0.2698 and 0.3129
rRyR1; TET 0.01 uM
  F/F0: 0.9832 and 0.9899 and 0.9753
rRyR1; TET 0.1 uM
  F/F0: 0.9793 and 0.9852 and 0.9641
rRyR1; TET 0.3 uM
  F/F0: 0.9696 and 0.952 and 0.9539
rRyR1; TET 1 uM
  F/F0: 0.9135 and 0.9295 and 0.9254
rRyR1; TET 3 uM
  F/F0: 0.8107 and 0.8058 and 0.7756
rRyR1; TET 10 uM
  F/F0: 0.34 and 0.3602 and 0.3556
rRyR1; TET 30 uM
  F/F0: 0.3168 and 0.2562 and 0.2448
rRyR1; TET 100 uM
  F/F0: 0.2045 and 0.2471 and 0.2529
rRyR1; diamide insecticides, n = 3, read-out: EC50
  EC50: 7.6 µM
chiRyR [2]
  EC50: 11.1 ± 0.9 nM
chiRyR [2]; 1 μM TET
  promotion of [3H]ryanodine binding: promote
chiRyR [2]; 1 μM TET, pCa 2.01
  [3H]ryanodine binding (B/Bmax): 0.5896 and 0.5427 and 0.6286 and 0.5623
chiRyR [2]; 1 μM TET, pCa 2.54
  [3H]ryanodine binding (B/Bmax): 0.4881 and 0.5388 and 0.5232 and 0.4217
chiRyR [2]; 1 μM TET, pCa 3.01
  [3H]ryanodine binding (B/Bmax): 0.2889 and 0.3787 and 0.4022 and 0.2616
chiRyR [2]; 1 μM TET, pCa 3.52
  [3H]ryanodine binding (B/Bmax): 0.2967 and 0.3397 and 0.4256 and 0.2811
chiRyR [2]; 1 μM TET, pCa 3.89
  [3H]ryanodine binding (B/Bmax): 0.2811 and 0.328 and 0.3319 and 0.2616
chiRyR [2]; 1 μM TET, pCa 4.5
  [3H]ryanodine binding (B/Bmax): 0.2889 and 0.2655 and 0.3319 and 0.285
chiRyR [2]; 1 μM TET, pCa 5
  [3H]ryanodine binding (B/Bmax): 0.3163 and 0.2538 and 0.3046 and 0.2694
chiRyR [2]; 1 μM TET, pCa 5.43
  [3H]ryanodine binding (B/Bmax): 0.3436 and 0.285 and 0.2889 and 0.367
chiRyR [2]; 1 μM TET, pCa 6.01
  [3H]ryanodine binding (B/Bmax): 0.2772 and 0.2421 and 0.3319 and 0.3085
chiRyR [2]; 1 μM TET, pCa 6.55
  [3H]ryanodine binding (B/Bmax): 0.3358 and 0.246 and 0.3826
chiRyR [2]; 1 μM TET, pCa 6.98
  [3H]ryanodine binding (B/Bmax): 0.2616 and 0.2694 and 0.2382 and 0.2108
